Assay results reported in US8263632B2, “Aminopyridine derivatives having Aurora A selective inhibitory action” (Vertex Pharmaceuticals Incoporated, priority 2009, dated 2012).
Where two headings read alike, the source gives them in different places.

Legend:
[1] = biological target: T1, Aurora A (Homo sapiens, UniProt O14965); assay: Aurora A inhibitory action (33P-ATP kinase assay, Kemptide substrate); assay type: biochemical
T1 construct: histidine tag (N); made in house; host or cells: Escherichia coli BL21-CodonPlus(DE3)-RIL
T1 sequence (O14965 1-403): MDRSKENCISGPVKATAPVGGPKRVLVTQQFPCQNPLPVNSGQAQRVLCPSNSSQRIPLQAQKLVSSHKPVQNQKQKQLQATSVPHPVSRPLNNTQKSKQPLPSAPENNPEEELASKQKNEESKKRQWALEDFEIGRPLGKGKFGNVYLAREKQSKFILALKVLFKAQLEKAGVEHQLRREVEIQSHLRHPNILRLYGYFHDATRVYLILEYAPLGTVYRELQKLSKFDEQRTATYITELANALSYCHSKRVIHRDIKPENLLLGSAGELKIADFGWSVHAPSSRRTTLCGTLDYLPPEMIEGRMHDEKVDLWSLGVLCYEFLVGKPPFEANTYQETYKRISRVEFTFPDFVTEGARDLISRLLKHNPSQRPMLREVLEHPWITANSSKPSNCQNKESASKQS
Protocol: (§1) The Escherichia coli cells were recovered and solubilized, and then the histidine-tagged Aurora A protein was adsorbed onto a nickel chelate column and eluted from the column with imidazole. The active fraction was desalted with a desalting column to give a pure enzyme.
Then, 10 μL of 350 mM phosphate buffer was added to the reaction system to stop the reaction. The substrate peptide was adsorbed on a P81 paper filter 96-well plate and then washed with 130 mM phosphate buffer for several times. The radiation activity of the peptide was measured with a liquid scintillation counter. The [γ-^33P] labeled ATP was purchased from Amersham Biosciences Co., Ltd.

[2] = biological target: T2, Aurora B (Homo sapiens, UniProt Q96GD4); assay: Aurora B inhibitory action (33P-ATP kinase assay, Kemptide substrate); assay type: biochemical; conditions: 100 μM unlabeled ATP, 100 μM substrate peptide, 30° C. for 20 minutes
T2 construct: histidine tag (N); made in house; host or cells: Escherichia coli BL21-CodonPlus(DE3)-RIL
From the text: Aurora B Inhibitory Action
(1) Purification of Aurora B
as §1, with “cDNA of Aurora B having histidine tag fused at the amino terminal was integrated into an expression vector, which was then highly expressed in Escherichia coli BL21-CodonPlus(DE3)-RIL cells. The Escherichia” for “The Escherichia”
(2) Measurement of activity of Aurora B
For measurement of the activity of Aurora B, the substrate used was Kemptide (Leu-Arg-Arg-Ala-Ser-Leu-Gly) (SEQ. ID. NO.: 1), a synthetic peptide purchased from Sigma-Aldrich, Inc. [Certificate of analysis (Upstate, Inc.)].
Reaction was conducted by a partial modification of the method of activity measurement for Aurora A. The amount of the reaction liquid was 21.1 μL, and the composition of the reaction buffer (R2 buffer) was 50 mM Tris-hydrochloride buffer (pH 7.4)/15 mM magnesium acetate/0.2 mM ethylenediamine-N,N,N′,N′-tetraacetate (EDTA). To this, purified Aurora B, 100 μM of a substrate peptide, 100 μM of unlabeled adenosine triphosphate (ATP) and 1 μCi of [γ-^33P] labeled ATP (2,500 Ci/mmole or more) were added, and the mixture was reacted at 30° C. for 20 minutes. Then, 10 μL of 350 mM phosphate buffer was added to the reaction system to stop the reaction. The substrate peptide was adsorbed on a P81 paper filter 96-well plate and then washed with 130 mM phosphate buffer for several times. The radiation activity of the peptide was measured with a liquid scintillation counter. The [γ-^33P] labeled ATP was purchased from Amersham Biosciences Co., Ltd.

[3] = 20 μM unlabeled ATP, 100 μM substrate peptide, 30° C. for 20 minutes, read-out: Inhibitory activity for Aurora A (IC50)

T2 sequence (Q96GD4 whole entry): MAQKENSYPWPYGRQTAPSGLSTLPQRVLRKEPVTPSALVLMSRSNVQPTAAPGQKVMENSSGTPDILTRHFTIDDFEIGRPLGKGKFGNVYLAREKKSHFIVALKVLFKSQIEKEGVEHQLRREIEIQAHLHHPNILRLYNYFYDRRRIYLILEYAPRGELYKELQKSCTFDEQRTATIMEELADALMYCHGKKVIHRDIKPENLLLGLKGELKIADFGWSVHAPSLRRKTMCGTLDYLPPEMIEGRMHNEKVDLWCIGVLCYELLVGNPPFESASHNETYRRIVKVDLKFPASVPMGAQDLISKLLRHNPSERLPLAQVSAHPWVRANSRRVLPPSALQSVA

Row | SMILES | IC50 [1] [nM] | IC50 [2] [nM] | IC50 [1, 3] [nM]
1 | CO[C@@]12CCN(C(=O)O[C@@H](C)C(F)(F)F)[C@@H]1CN(c1nc(C)cc(Nc3cc[nH]n3)n1)C2 [Example 1, (2S)-1,1,1-trifluoropropan-2-yl (3aR,6aR)-3a-metboxy-5-[4-methyl-6-(1H-pyrazol-3-ylamino)pyrimidin-2-yl]hexahydropyrrolo[3,4-b]pyrrole-1(2H)-carboxylate] | 2.3 | 730 | –
2 | Cc1cc(Nc2cc[nH]n2)nc(N2C[C@@H]3[C@@H](C2)OCCN3C(=O)O[C@@H](C)C(F)(F)F)n1 [Example 2, (2S)-1,1,1-trifluoropropan-2-yl (4aR,7aR)-6-[4-methyl-6-(1H-pyrazol-3-ylamino)pyrimidin-2-yl]hexahydropyrrolo[3,4-b][1,4]oxazine-4(4aH)-carboxylate] | – | 85 | 1.3
3 | Cc1cc(Nc2cc[nH]n2)nc(N2C[C@@H]3[C@@H](C2)OCCN3C(=O)OC(C)(C)C(F)(F)F)n1 [Example 3, 1,1,1-trifluoro-2-methylpropan-2-yl (4aR,7aR)-6-[4-methyl-6-(1H-pyrazol-3-ylamino)pyrimidin-2-yl]hexahydropyrrolo[3,4-b][1,4]oxazine-4(4aH)-carboxylate] | – | 870 | 5.4
